The source of these data is patent US20260021152A1, “USE OF MALE FLOWER EXTRACT OF EUCOMMIA ULMOIDES OLIVER IN PREPARATION OF FOOD OR MEDICAMENT FOR RESISTING MUSCLE AGING” (ZHEJIANG UNIVERSITY, priority 2022, published 2026).

In the first assay the test system is mt-Keima HEK 293T cells. Description: In vitro activation of mitophagy in mt-Keima 293T cells. As to conditions: 10 μM, 6 hours. The format is cell-based, human. The procedure: The specific method was as follows:
293T cells were cultured and passaged in the normal way, and inoculated in a 24-well plate, with 0.5 mL inoculated in each well. The cell density was 5×10^4 cells/mL, and a total of 2.5×10^4 cells were inoculated. Before inoculation, the cells in the centrifuge tube were pipetted evenly to ensure that the cell density at the beginning and at the end was consistent. After standing for 5-10 minutes, the plate was gently placed in the incubator. After overnight incubation, the original complete medium was removed, and 0.3 mL of a complete medium solution containing 1.5×10^5 TU lentiviruses was added to each well. After incubation at 37° C. for 8 hours, 200 μL of the complete medium was added to each well. After 24 hours of transfection, the medium was replaced until the cell density reached 80-90%, and the cells were digested and passaged a T25 flask. […] The successfully transfected cells were screened using a complete medium containing 0.5 μg/mL of a puromycin hydrochloride solution, and maintained with 0.25 μg/mL of the solution.
The confocal dishes were inoculated with 1 mL per dish, with a cell density of 2×10^5 cells/mL. After standing for 5-10 minutes, the dishes were gently placed in the incubator. When the cells grew to 30-40%, the drug was administered. After treating mt-Keima cells with 10 μM different iridoid monomer ingredients from the male flowers of Eucommia ulmoides Oliver or 10 μM CCCP for 6 hours, the medium was replaced with a fresh complete medium, and then live-cell confocal observation was performed directly. Confocal parameters: the excitation wavelengths were 440 nm and 596 nm each, and the emission wavelength was 620 nm, observed by a 40× water immersion objective.
Regarding `CC(=O)OCC1=C[C@@H]2OC(=O)C3=CO[C@@H](O[C@@H]4O[C@H](CO)[C@@H](O)[C@H](O)[C@H]4O)[C@H]1[C@@H]32` [asperuloside], the mitophagy activation entry is “had mitophagy-activating activity”.

In the case of `OCC1=C[C@@H](O)[C@@H]2C=CO[C@@H](O[C@@H]3O[C@H](CO)[C@@H](O)[C@H](O)[C@H]3O)[C@H]12` [aucubin], the mitophagy activation entry was “have mitophagy-activating activity”.

As for `COC(=O)C1=CO[C@@H](O[C@@H]2O[C@H](CO)[C@@H](O)[C@H](O)[C@H]2O)[C@@H]2C(CO)=CC[C@H]12` [geniposide], the mitophagy activation result is “have mitophagy-activating activity”.

`O=C(O)C1=CO[C@@H](O[C@@H]2O[C@H](CO)[C@@H](O)[C@H](O)[C@H]2O)[C@@H]2C(CO)=CC[C@H]12` [geniposidic acid]: the mitophagy activation result is “have mitophagy-activating activity”.

“carbonyl cyanide ester-3-chlorophenylhydrazone [CCCP]”: the mitophagy activation entry is recorded as “significantly induced the occurrence of mitophagy”.

The same assay, now with this note: 10 μM, 6 hours, same concentration.
As for `CC(=O)OCC1=C[C@@H]2OC(=O)C3=CO[C@@H](O[C@@H]4O[C@H](CO)[C@@H](O)[C@H](O)[C@H]4O)[C@H]1[C@@H]32` [asperuloside], the “comparison of the average fluorescence density ratio” value is reported as “better than that of the other three monomer ingredients”.
